Test results as given in publication PMC6797808, “Fucosylated inhibitors of recently identified bangle lectin from Photorhabdus asymbiotica” (Scientific Reports, 2019).
≈ marks a conversion by molar mass, not a printed value.

Tests used:
[1] = molecular target: T1, PHL (Photorhabdus asymbiotica, UniProt C7BLE4); experiment: Hemagglutination inhibition assay with PHL (papain-treated human RBCs O); format: cell-based; conditions: for MIC (minimal inhibitory concentration, hemagglutination by PHL): RBC O, two independent measurements; for PotencyL-Fuc / β L-Fuc (affinity improvement factor) / β Azide1 (affinity improvement factor) / PotencyAzide1: hemagglutination; for PotencyL-Fuc: MIC L-fucose / MIC ligand; for β L-Fuc (affinity improvement factor): MICbasic unit/(valency × MICligand), basic unit L-Fuc; for β Azide1 (affinity improvement factor): basic unit azide 1; for PotencyAzide1: relative to azide 1
Method: The set of potential ligands 1–10 with different levels of fucosylation was tested, and their inhibition potency on hemagglutination by PHL was assessed (Table 1, Fig. 2). […] To assess the contribution of valency to the affinity increase, an affinity improvement factor β was calculated as the relationship MICbasic unit/(valency × MICligand).
Human red blood cells (RBCs) O were processed according to previously published work[16]. In brief, RBCs O treated with sodium citrate were washed four times by PBS buffer (137 mM NaCl, 2.7 mM KCl, 8 mM Na2HPO4, 1.47 mM KH2PO4, pH 7.4), diluted to 50% by PBS with 0.005% (w/w) sodium azide and treated by 0.1% papain for the duration of 30 minutes.
Hemagglutination inhibition assay was performed for specificity and semi-quantitative affinity of the PHL interaction with the compounds. All carbohydrate inhibitors in 50 mM starting concentration were serially diluted in the PBS buffer and used for a determination of the lowest inhibiting concentration. As a blank, the PBS buffer supplemented with the appropriate amount of DMSO was used in order to exclude potential interference with the interaction. The individual samples were mixed with the lectin in concentration 2 mg/ml in a 5 μl:5 μl ratio. Thereafter, 10 μl of 10% RBCs O in PBS buffer was added, thoroughly mixed and incubated for 10 minutes at room temperature. Following incubation, the mixture was again mixed and the reaction was observed on microscope slides using Levenhuk 2L NG microscope with Levenhuk D2L digital camera (Levenhuk, USA). Imagines were obtained via software ToupView for Windows (Levenhuk). The positive (PHL without inhibitor) and negative control (reaction without PHL) were prepared and processed in the same way using the appropriate volume of PBS buffer instead of the not included components. The lowest concentration of inhibitor able to inhibit agglutination was determined and compared with the standard (L-fucose). Minimal inhibitory concentrations (MIC) of synthesised inhibitors were determined from two independent measurements.

[2] = molecular target: T1, PHL; experiment: SPR competitive inhibition of PHL binding to α-L-fucoside sensor chip; conditions: for IC50: 25 °C, three independent measurements; for β L-Fuc (affinity improvement factor): IC50,basic unit/(valency × IC50,ligand), basic unit L-Fuc; for PotencyL-Fuc: IC50 L-fucose / IC50 ligand
Method: To analyse the competitive inhibition of PHL binding to a multivalent surface, the surface plasmon resonance (SPR) technique was employed. A sensor chip presenting α-L-fucopyranoside residues was treated with a constant concentration of PHL, while an increasing concentration of the ligands was used to determine IC50 (Table 2, Fig. 3). […] To assess the contribution of valency to the affinity increase, an affinity improvement factor β was calculated as the relationship IC50,basic unit/(valency × IC50,ligand)[30].
Surface plasmon resonance (SPR) experiments were performed on a BIAcore T200 instrument (GE Healthcare, UK) at 25 °C, using buffer A supplemented with 0.05% Tween 20 as a running buffer. α-L-fucoside was immobilized onto CM5 sensor chip (GE Healthcare, UK) covered with a carboxymethylated dextran matrix. The sensor chip surface was activated with N-ethyl-N-(3-dimethylaminopropyl)carbodiimide/N-hydroxysuccinimide solution and then coated with streptavidin using the manufacturer’s standard protocol using HBS buffer (10 mM HEPES, 150 mM NaCl, 0.05% Tween 20, pH 7. 5). Unreacted groups were blocked with 1 M ethanolamine-HCl, pH 8.5. Biotinylated carbohydrate (biotinilated monomeric probes, Lectinity, Russia) was injected onto particular measuring channel and pure biotin on blank channel at a flow rate of 5 μl/min.
SPR inhibition measurements were carried out on measuring channel with L-fucoside at a flow rate of 5 µl/min. PHL was diluted to a concentration of 20 μg/ml by the buffer A supplemented with 0.05% Tween 20, mixed 1:1 (v/v) with various concentrations of inhibitors (500–5 μM) in the same buffer and injected onto the sensor chip. The response of lectin bound to the sugar surface at equilibrium was plotted against the concentration of inhibitor in order to determine IC50 (concentration of inhibitor resulting in 50% inhibition of binding). As IC50 is not a constant and depends on the experimental set-up, a parameter called potency was used for characterization. The potency of a tested inhibitor is the ratio of IC50 of a chosen standard inhibitor (in this case L-fucose) and the inhibitor in question. Pure PHL lectin was used as a control (0% inhibition) and channel with pure biotin served as a blank. IC50 was determined from triplicates.

[3] = tested on: P. asymbiotica subsp. australis cells; experiment: Cell aggregation (cross-linking) assay; format: cell-based, Photorhabdus asymbiotica subsp. australis; conditions: three independent measurements
Excerpt: Because of the aggregation of PHL by calixarenes and dendrimers during SPR and ITC experiments, we decided to compare tetravalent compounds at a higher level. We performed a series of in vitro aggregation assays to reveal their aggregation properties towards P. asymbiotica subsp. australis (Table 4, Fig. 5). Prior to each assay, we confirmed the absence of aggregates in two negative controls – bacterial cells in PBS buffer and in the presence of azide 1 as a monomer. With all chosen compounds, we observed bacterial aggregates of a variable size that confirmed that they are capable of interacting with a cell surface. This effect may be caused by interaction of the multivalent inhibitors with PHL or other receptors. The concentration of the first appearance of aggregates varied according to the nature of the ligand used. […] An unexpected observation was that calixarene 7 had the lowest aggregation potential. In contrast to other techniques (hemagglutination, SPR and ITC), where calixarenes 6 and 7 provided similar results, during cross-linking experiments calixarene 7 was four times worse than calixarene 6. At the same time, both tetrameric calixarenes 6 and 7 are in a 1,3-alternate conformation with the two-faced presentation of the fucopyranosyl epitopes on opposite regions probably occupying a similar spatial orientation. The only difference is the tert-Bu group on the upper rim in calixarene 6, which might contribute to nonpolar interactions with whole P. asymbiotica cells.
P. asymbiotica subsp. australis was inoculated from stock cells stored at −80 °C into a standard LB media and were grown in 30 °C under an orbital shaking overnight. Bacterial growth was tracked by measuring the optical density of the broth at 600 nm (OD600) using a spectrophotometer (Biochrom Ltd., BioPhotometer WGA CO 8000 Biowave). Cells were harvested when reaching an OD600 = 0.5. The culture was centrifuged at 4,300 g and room temperature for 2 minutes (Minispin, Eppendorf, Germany) and cells were then washed three times with PBS buffer. Cells were diluted in PBS to OD600 of 2.0 and kept in a fridge until performing the aggregation assay.
P. asymbiotica subsp. australis cells and fucosylated compounds in a concentration ranging from 50 mM to 3.125 mM were gently mixed in a 9:1 (v/v) ratio. The reaction mixtures were left at room temperature for 10 minutes. 5 µl of reaction mixture was then transferred onto a microscope slide and observed under a fluorescence microscope (OLYMPUS IX81 Microscope IX81F-3 with IX2-UCB-2 Controller and X-Cite 120PC Q; Olympus and Excelitas Technologies, Japan, resp. USA). As a negative control, bacterial cells with/without azide 1 as a monomer were used. Three independent measurements were performed.

[4] = molecular target: T1, PHL; experiment: Isothermal titration calorimetry of PHL with ligands; format: binding
Excerpt: The binding of PHL to different α-L-fucoside compounds was further characterized by isothermal titration calorimetry (ITC), enabling determination of the complete thermodynamic profile of the molecular interactions (Table 3, Fig. 4). […] Because of this, it was not possible to evaluate the data, despite the obvious interaction. The dendrimers also cross-linked/aggregated the protein as with calixarenes, however the curves provided clear outcomes with an affinity in the low micromolar range. The dissociation constants (KD) of all dendrimers correlate with their valency – the higher number of fucose, the more decreased KD. […] The stoichiometry value n corresponds to the number of terminal fucoses per ligand molecule. The n value decreases from 4 to 1 as the number of fucose units increases from 1 to 12 (Table 3).
PHL protein in buffer A was equilibrated at room temperature at least for 30 min before ITC measurement. All ITC experiments were performed using ITC200 calorimeter (Malvern Panalytical, UK) at 25 °C. Carbohydrate ligands dissolved in buffer A were used at different concentrations. Protein in the calorimeter cell (50 μM) was titrated by consecutive additions (2 μl) of the ligand (1.5–5 mM) in the syringe while stirring at 1000 rpm. Integrated heat effects were analysed by nonlinear regression using a single-site binding model and global fitting in Origin 7 software (Microcal Instruments)[37]. The thermodynamic parameters of synthesised inhibitors were determined from two independent measurements.

T1 sequence (C7BLE4 entry or part of it): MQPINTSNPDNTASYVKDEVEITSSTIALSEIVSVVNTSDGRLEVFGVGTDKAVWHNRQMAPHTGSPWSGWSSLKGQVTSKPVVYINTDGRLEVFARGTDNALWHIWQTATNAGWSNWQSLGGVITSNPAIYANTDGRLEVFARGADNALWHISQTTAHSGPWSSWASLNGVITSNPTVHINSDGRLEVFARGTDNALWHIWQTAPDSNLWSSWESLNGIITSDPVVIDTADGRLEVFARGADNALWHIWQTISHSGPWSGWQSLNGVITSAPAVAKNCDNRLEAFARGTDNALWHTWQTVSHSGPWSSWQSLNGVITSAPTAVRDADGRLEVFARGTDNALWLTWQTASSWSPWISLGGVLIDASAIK

Compound: C[C@@H]1O[C@@H](CCn2cc(COc3c4cc(C(C)(C)C)cc3Cc3cc(C(C)(C)C)cc(c3OCc3cn(CC[C@@H]5O[C@@H](C)[C@@H](O)[C@@H](O)[C@@H]5O)nn3)Cc3cc(C(C)(C)C)cc(c3OCc3cn(CC[C@@H]5O[C@@H](C)[C@@H](O)[C@@H](O)[C@@H]5O)nn3)Cc3cc(C(C)(C)C)cc(c3OCc3cn(CC[C@@H]5O[C@@H](C)[C@@H](O)[C@@H](O)[C@@H]5O)nn3)C4)nn2)[C@@H](O)[C@H](O)[C@@H]1O [Calixarene 6]
- MIC (minimal inhibitory concentration, hemagglutination by PHL) [1]: 100 µM (≈ 167 µg/mL)
- PotencyL-Fuc [1]: 31.3
- β L-Fuc (affinity improvement factor) [1]: 7.8
- β Azide1 (affinity improvement factor) [1]: 0.5
- PotencyAzide1 [1]: 2
- IC50 [2]: 0.195 ± 0.023 µM
- β L-Fuc (affinity improvement factor) [2]: 464
- PotencyL-Fuc [2]: 1,853
- β Azide1 (affinity improvement factor) ([2]; basic unit azide 1): 15
- β Azide1 (affinity improvement factor) ([2]; basic unit azide 1, listed as calixarene 6): approximately 15
- PotencyAzide1 ([2]; relative to azide 1): 59
- The lowest concentration able to aggregate P. asymbiotica cells [3]: 1.25 mM

Compound: C[C@@H]1O[C@@H](CCn2cc(COCC(COCc3cn(CC[C@@H]4O[C@@H](C)[C@@H](O)[C@@H](O)[C@@H]4O)nn3)(COCc3cn(CC[C@@H]4O[C@@H](C)[C@@H](O)[C@@H](O)[C@@H]4O)nn3)COCC(COCc3cn(CC[C@@H]4O[C@@H](C)[C@@H](O)[C@@H](O)[C@@H]4O)nn3)(COCc3cn(CC[C@@H]4O[C@@H](C)[C@@H](O)[C@@H](O)[C@@H]4O)nn3)COCc3cn(CC[C@@H]4O[C@@H](C)[C@@H](O)[C@@H](O)[C@@H]4O)nn3)nn2)[C@@H](O)[C@H](O)[C@@H]1O [Dendrimer 9]
- MIC (minimal inhibitory concentration, hemagglutination by PHL) [1]: 25 µM (≈ 44.6 µg/mL)
- PotencyL-Fuc [1]: 125
- PotencyL-Fuc ([1]; listed as dendrimer 9): more than 100
- β L-Fuc (affinity improvement factor) [1]: 20.8
- β Azide1 (affinity improvement factor) [1]: 1.3
- PotencyAzide1 [1]: 8
- IC50 [2]: 0.037 ± 0.003 µM
- β L-Fuc (affinity improvement factor) [2]: 1,631
- β L-Fuc (affinity improvement factor) ([2]; listed as dendrimer 9): over 1,600
- PotencyL-Fuc [2]: 9,762
- PotencyL-Fuc ([2]; listed as dendrimer 9): 9,800
- β Azide1 (affinity improvement factor) ([2]; basic unit azide 1): 52
- PotencyAzide1 ([2]; relative to azide 1): 311
- PotencyAzide1 ([2]; relative to azide 1, listed as dendrimer 9): 310
- Kd ([4]; ITC at 25 °C): 12.5 ± 0.6 µM
- −TΔS ([4]; ITC at 25 °C): 10.4 ± 0.382 kcal/mol
- −ΔG ([4]; ITC at 25 °C): 6.69 ± 0.311 kcal/mol
- −ΔH ([4]; ITC at 25 °C): 17.1 ± 0.19 kcal/mol
- n (stoichiometry) ([4]; ITC at 25 °C, two independent measurements): 2.0 ± 0.0
- Kd ([4]; ITC at 25 °C, listed as hexavalent dendrimer): 13 µM
- Potency L-Fuc ([4]; ITC, KD L-fucose / KD ligand): 112
- β L-Fuc (affinity improvement factor) ([4]; ITC, KD,basic unit/(valency × KD,ligand), basic unit L-Fuc): 19
- β Azide1 (affinity improvement factor) ([4]; ITC, basic unit azide 1): 1
- PotencyAzide1 ([4]; ITC, relative to azide 1): 8
